The subject of this test is DT-diaphorase (DT-D). Kind of test: DT-diaphorase activity in cell extracts (dicoumarol-inhibitable NAD(P)H: dichlorophenol indophenol reductase). Type of test: cell-based. On the procedure: The measurement of the DT-diaphorase (DT-D) was effected as a dicoumarol-inhibitable NAD(P)H: dichlorophenol indophenol reductase, as described in Hodnick et al., Anal. Biochem 252(1), 1997, 165-168 (incorporated by reference herein in its entirety). Extracts were tested of a similar number of cells which had been treated with DOX±BVDU for DT-D activity.

For `O=c1[nH]c(=O)n([C@H]2C[C@H](O)[C@@H](CO)O2)cc1/C=C/Br` [BVDU, (E)-5-(2-bromovinyl)-2′-deoxyuridine], the DT-D activity entry (BVDU alone) was “increases the DT-D activity constantly, but in part only weakly”. For the setting “cells treated with DOX±BVDU”, the “DT-D activity relative to control cells or cells treated solely with DOX” value is reported as “approximately threefold”.

For the origin of these results see US20090068286A1, “METHOD OF TREATING CANCER BY ADMINISTRATION OF 5-SUBSTITUTED NUCLEOSIDES” (RESprotect, GmbH, priority 2007, published 2009).
